For one data set, the system named is Rh41. Kind of data set: Antiproliferative activity against human Rh41 cells assessed as cell growth inhibition incubated for 96 hrs by MTS assay. It counts as functional, cell-based. Particulars: Rh41, 96 h. Background: Tetrazolium dyes change colour on reduction, which living cells bring about.
The nature of data set [1]: Half life in male Wistar rat plasma at 0.5 mg/kg, iv measured after 24 hrs by LC/-MS/MS analysis. It counts as ADME, organism-based.
A short description of data set [2]: Synergistic antitumor activity against human LU387 cells xenografted female athymic NMRI mouse model assessed as MTD at 1 mg/kg,po administered twice daily intermittent for 2 days on/5 days off in the presence of paclitaxel relative to control. Type of data set: functional. Particulars: time 7 day. A general note: Xenograft models place foreign cells or tissue in a host animal.

Data set [3] can be described thus: In vivo inhibition of Mps1 in NMRI mouse assessed as MTD at => 1 mg/kg,po administered twice daily for 2 days and measured after 3 days relative to control. Type of data set: functional. Particulars: time 2 day.
Data set [4] can be described thus: Oral bioavailability in female NMRI mouse plasma at 1 mg/kg measured after 24 hrs by LC/-MS/MS analysis.
For the next data set, the system named is SiHa. Kind of data set: Antiproliferative activity against human SiHa cells assessed as cell growth inhibition incubated for 96 hrs by crystal violet staining.
The test system of another data set is SK-BR-3. In words: Antiproliferative activity against human SK-BR-3 cells assessed as cell growth inhibition incubated for 96 hrs by crystal violet staining. Particulars: SK-BR-3, 96 h.
Another data set concerns Malme-3M. Kind of data set: Antiproliferative activity against human Malme-3M cells assessed as cell growth inhibition incubated for 96 hrs by crystal violet staining.

pIC50: −log10 of the molar value.

1 molecule from ChEMBL document CHEMBL5678814, “Novel Mps1 Kinase Inhibitors with Potent Antitumor Activity” (Mol Cancer Ther, 2016) can be followed below.

The pIC50 is −log10 of the IC50, conventionally taken in molar units. The term half-life denotes how long it takes for the measured level to halve. Low readings indicate rapid decline, high ones slow decline. Usually bioavailability stands for dose-corrected exposure relative to a reference, in per cent.

On to `COc1cc(S(C)(=O)=O)ccc1Nc1nc2ccc(-c3ccc(NC(=O)[C@H](C)c4ccc(F)cc4)cc3)cn2n1` [BAY-1161909], for which the pIC50 in the data set with Rh41 is 6.82; in the data set with SiHa it was 6.21; with SK-BR-3 it was below 5.52; in the data set with Malme-3M, 6.70. The molecule further had a half-life in data set [1] of 14 h. Also, the MED in data set [2] is reported as 40%; in data set [3], “>=40%”. This molecule returned a bioavailability in data set [4] of 59%.
